ChEMBL document CHEMBL1138010, “Discovery of highly potent, selective, orally bioavailable, metabotropic glutamate subtype 5 (mGlu5) receptor antagonists devoid of cytochrome P450 1A2 inhibitory activity” (Bioorg Med Chem Lett, 2004)
pKi: −log10 of the molar value.

Tests used:
Cytochrome P450 1A2 = molecular target: T1, Cytochrome P450 1A2 (Homo sapiens, UniProt P05177); assay: Antagonistic activity against recombinant cytochrome P450 1A2; type: ADME; conditions: recombinant enzyme
T1 sequence (P05177 whole entry): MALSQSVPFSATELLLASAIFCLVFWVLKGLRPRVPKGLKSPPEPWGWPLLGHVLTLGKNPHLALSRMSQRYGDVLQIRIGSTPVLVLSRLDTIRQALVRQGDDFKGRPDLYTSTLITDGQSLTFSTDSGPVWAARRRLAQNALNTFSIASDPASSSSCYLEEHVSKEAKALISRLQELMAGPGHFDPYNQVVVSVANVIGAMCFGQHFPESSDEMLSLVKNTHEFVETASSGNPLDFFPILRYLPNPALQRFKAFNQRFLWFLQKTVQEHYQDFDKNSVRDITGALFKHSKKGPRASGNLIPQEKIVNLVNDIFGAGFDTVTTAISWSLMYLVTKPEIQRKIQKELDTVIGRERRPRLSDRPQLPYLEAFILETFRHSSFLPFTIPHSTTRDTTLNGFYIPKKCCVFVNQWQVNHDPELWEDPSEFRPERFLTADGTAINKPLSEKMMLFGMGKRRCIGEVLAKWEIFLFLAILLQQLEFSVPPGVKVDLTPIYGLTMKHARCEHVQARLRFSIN

[1] = molecular target: Metabotropic glutamate receptor 5 (Rattus norvegicus) (UniProt P31424); assay: Percent occupancy of the Metabotropic glutamate receptor 5 by the [3H]3-methoxy-5-(pyridin-2-ylethynyl)pyridine ligand 1 hr post-administration of 10 mg/kg compound ip; type: organism-based; set-up: dose 10 mg/kg
[2] = molecular target: Metabotropic glutamate receptor 5 (Rattus norvegicus) (UniProt P31424); assay: Antagonistic activity against Metabotropic glutamate receptor 5 in [Ca2+] flux assay using glutamate (10 uM) as agonist; type: functional
[3] = molecular target: Metabotropic glutamate receptor 5 (Rattus norvegicus, UniProt P31424); assay: Binding affinity towards Metabotropic glutamate receptor was determined by displacing [3H]3-methoxy-5-(pyridin-2-ylethynyl)pyridine from rat cortical membranes
[4] = Area under the curve after dosing 2 mg/kg iv and 10 mg/kg po; type: ADME, organism-based; conditions: rat, in vivo
[5] = Oral bioavailability after dosing 2 mg/kg iv and 10 mg/kg po; type: ADME, organism-based; conditions: rat, in vivo
[6] = Plasma clearance after dosing 2 mg/kg iv and 10 mg/kg po; type: ADME, organism-based; conditions: rat
Cytochrome P450 2C19 = Cytochrome P450 2C19 (Homo sapiens, UniProt P33261); assay: Antagonistic activity against recombinant cytochrome P450 2C19; type: ADME; conditions: recombinant enzyme
[7] = Volume of distribution after dosing 2 mg/kg iv and 10 mg/kg po; type: ADME, organism-based; conditions: rat, in vivo
Cytochrome P450 3A4 = Cytochrome P450 3A4 (Homo sapiens, UniProt P08684); assay: Antagonistic activity against recombinant cytochrome P450 3A4; type: ADME; conditions: recombinant enzyme
Cytochrome P450 2C9 = Cytochrome P450 2C9 (Homo sapiens, UniProt P11712); assay: Antagonistic activity against recombinant cytochrome P450 2C9; type: ADME; conditions: recombinant enzyme
Cytochrome P450 2D6 = Cytochrome P450 2D6 (Homo sapiens, UniProt P10635); assay: Antagonistic activity against recombinant cytochrome P450 2D6; type: ADME; conditions: recombinant enzyme
Rattus norvegicus = assay: Concentration in rat brain measured at 1 hr post-administration of 10 mg/kg ip; type: functional, organism-based; set-up: dose 10 mg/kg
[8] = Volume of distribution was determined; type: ADME, organism-based; conditions: rat, in vivo
[9] = Plasma clearance was determined; type: ADME, organism-based; conditions: rat
[10] = Oral bioavailability; type: ADME, organism-based; conditions: rat, in vivo
[11] = Area under the curve was determined; type: ADME; conditions: rat
[12] = Half life was determined; type: ADME; conditions: rat

Sequence of Metabotropic glutamate receptor 5 (Rattus norvegicus) (P31424 21-1203 limits assumed): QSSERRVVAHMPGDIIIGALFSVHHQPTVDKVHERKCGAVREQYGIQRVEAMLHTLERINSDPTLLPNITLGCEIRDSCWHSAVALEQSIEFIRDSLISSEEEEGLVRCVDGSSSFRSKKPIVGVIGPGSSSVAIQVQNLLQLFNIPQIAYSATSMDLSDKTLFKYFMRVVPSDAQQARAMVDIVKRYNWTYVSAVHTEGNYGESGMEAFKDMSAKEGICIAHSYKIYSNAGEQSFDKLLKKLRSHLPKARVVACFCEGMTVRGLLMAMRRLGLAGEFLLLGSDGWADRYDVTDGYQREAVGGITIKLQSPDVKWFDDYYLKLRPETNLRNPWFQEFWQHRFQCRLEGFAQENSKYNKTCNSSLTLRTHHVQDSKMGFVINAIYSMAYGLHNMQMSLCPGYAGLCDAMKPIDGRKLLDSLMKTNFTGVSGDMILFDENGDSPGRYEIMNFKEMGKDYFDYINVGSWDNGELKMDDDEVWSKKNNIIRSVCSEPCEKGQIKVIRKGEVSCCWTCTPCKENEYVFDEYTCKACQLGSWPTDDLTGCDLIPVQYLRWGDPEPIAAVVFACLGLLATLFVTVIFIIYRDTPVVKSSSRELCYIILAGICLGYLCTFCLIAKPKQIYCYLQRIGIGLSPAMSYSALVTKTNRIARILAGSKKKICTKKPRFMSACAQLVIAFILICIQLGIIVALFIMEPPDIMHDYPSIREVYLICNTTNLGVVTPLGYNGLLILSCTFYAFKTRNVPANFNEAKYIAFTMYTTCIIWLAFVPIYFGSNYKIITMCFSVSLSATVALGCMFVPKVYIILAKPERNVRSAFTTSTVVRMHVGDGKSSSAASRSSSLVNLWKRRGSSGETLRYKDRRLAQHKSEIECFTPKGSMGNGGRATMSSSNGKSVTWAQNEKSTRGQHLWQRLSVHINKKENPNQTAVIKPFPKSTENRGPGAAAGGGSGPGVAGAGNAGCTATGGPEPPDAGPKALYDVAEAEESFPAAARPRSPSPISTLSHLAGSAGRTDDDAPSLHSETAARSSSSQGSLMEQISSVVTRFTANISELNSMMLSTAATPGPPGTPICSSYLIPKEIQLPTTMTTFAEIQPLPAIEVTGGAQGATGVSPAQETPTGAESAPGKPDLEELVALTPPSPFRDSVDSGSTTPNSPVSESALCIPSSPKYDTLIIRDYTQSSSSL
Sequence of Metabotropic glutamate receptor 5 (P31424 whole entry): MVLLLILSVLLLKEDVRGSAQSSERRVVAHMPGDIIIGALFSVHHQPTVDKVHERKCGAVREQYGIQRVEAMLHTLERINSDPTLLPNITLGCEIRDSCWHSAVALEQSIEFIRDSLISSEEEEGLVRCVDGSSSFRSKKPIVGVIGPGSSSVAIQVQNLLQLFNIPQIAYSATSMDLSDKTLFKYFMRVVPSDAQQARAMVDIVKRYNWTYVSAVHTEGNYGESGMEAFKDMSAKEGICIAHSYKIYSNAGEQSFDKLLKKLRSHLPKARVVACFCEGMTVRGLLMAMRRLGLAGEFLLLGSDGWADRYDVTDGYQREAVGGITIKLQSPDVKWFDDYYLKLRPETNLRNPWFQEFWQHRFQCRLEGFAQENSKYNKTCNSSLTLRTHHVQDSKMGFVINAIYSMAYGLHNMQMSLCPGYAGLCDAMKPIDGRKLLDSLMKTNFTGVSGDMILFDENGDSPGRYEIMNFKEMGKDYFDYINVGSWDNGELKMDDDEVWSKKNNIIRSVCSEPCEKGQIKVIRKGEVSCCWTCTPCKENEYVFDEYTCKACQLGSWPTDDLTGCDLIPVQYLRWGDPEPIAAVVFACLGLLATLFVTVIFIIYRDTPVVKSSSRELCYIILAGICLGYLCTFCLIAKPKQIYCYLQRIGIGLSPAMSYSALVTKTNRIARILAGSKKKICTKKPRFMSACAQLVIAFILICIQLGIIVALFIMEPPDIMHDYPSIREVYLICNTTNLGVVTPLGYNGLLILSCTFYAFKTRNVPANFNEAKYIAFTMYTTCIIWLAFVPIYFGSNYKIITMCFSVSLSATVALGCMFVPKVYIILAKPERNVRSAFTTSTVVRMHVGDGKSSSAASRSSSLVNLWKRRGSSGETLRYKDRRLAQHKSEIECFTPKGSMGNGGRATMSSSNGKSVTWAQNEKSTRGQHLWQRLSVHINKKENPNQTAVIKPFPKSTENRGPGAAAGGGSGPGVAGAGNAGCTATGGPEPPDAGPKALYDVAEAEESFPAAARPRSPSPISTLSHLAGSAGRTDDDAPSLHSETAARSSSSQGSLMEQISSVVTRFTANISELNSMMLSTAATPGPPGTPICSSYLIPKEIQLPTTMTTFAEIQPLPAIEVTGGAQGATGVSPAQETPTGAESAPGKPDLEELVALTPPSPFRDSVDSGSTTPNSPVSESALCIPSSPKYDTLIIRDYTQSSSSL
Sequence of Cytochrome P450 2C19 (P33261 whole entry): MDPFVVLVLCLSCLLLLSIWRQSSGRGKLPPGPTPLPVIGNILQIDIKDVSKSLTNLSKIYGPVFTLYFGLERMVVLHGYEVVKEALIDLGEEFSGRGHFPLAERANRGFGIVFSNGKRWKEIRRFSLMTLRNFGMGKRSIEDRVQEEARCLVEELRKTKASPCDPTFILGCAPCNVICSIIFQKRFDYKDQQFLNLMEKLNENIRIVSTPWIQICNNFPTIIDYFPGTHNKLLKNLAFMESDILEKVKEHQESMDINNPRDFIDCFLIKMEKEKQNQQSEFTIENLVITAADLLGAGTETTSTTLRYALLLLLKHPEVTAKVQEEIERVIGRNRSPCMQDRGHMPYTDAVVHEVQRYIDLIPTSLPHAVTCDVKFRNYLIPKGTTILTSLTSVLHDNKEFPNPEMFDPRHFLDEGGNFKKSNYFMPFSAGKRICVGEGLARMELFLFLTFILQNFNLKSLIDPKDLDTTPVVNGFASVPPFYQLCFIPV
Sequence of Cytochrome P450 2D6 (P10635 whole entry): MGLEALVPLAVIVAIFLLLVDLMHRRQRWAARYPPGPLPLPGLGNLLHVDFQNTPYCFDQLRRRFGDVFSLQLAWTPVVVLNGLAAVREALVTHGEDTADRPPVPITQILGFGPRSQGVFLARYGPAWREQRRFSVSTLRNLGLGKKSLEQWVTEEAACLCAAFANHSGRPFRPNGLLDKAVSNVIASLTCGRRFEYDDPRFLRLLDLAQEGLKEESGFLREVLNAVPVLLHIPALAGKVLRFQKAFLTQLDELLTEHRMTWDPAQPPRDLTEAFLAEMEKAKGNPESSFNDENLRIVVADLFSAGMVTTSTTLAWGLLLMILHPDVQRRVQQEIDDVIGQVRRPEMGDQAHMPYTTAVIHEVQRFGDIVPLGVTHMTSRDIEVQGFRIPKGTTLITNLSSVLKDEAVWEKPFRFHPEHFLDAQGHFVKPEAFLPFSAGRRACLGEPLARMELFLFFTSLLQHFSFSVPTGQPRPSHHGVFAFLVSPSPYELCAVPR
Sequence of Cytochrome P450 2C9 (P11712 whole entry): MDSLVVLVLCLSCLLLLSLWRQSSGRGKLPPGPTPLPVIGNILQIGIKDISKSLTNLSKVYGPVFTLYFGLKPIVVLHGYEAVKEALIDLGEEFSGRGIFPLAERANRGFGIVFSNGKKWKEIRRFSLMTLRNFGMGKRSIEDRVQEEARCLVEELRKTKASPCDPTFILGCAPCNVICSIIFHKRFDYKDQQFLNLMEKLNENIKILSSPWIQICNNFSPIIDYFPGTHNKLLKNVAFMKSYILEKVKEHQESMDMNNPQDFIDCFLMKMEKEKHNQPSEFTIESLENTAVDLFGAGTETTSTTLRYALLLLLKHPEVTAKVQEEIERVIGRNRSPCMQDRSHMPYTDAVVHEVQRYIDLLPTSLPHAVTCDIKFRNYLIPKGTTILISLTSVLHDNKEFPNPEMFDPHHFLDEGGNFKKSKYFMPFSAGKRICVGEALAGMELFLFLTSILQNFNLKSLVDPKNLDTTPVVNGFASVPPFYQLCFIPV
Sequence of Cytochrome P450 3A4 (P08684 whole entry): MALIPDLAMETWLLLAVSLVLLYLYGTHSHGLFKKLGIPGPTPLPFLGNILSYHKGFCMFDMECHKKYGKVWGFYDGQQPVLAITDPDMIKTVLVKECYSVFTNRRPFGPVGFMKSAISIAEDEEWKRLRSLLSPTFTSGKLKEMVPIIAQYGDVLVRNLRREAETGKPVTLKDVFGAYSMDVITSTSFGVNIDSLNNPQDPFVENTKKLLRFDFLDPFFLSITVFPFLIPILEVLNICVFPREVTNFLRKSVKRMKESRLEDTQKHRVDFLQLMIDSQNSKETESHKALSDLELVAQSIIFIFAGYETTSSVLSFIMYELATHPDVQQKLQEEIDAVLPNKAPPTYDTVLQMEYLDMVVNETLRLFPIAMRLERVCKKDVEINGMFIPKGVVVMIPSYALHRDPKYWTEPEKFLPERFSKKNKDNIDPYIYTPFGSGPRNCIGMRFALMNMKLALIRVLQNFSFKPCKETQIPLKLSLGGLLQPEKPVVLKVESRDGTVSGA

| Compound | Activity (Cytochrome P450 1A2) [µM] | Occupancy [1] [%] | Activity [2] [nM] | pKi [3] | further results |
| --- | --- | --- | --- | --- | --- |
| N#Cc1cccc(-n2nnc(-c3ncc[nH]3)n2)c1 | > 14 |  | 77 | 7.47 |  |
| N#Cc1cc(F)cc(-n2nnc(-c3ccccn3)n2)c1 | 2.3 |  | 3.9 |  | AUC [4]: 9.6 µM·h; bioavailability [5]: 24%; clearance [6]: 15 mL/min/kg; Activity (Cytochrome P450 2C19): > 14 µM; Vd [7]: 1.1 L/kg; Activity (Cytochrome P450 3A4): > 14 µM; Activity (Cytochrome P450 2C9): > 14 µM; Activity (Cytochrome P450 2D6): > 14 µM; Concentration (Rattus norvegicus): 9.7 µM |
| Cc1ccncc1-c1cc(F)cc(-n2nnc(-c3ncc[nH]3)n2)c1 | 3.5 | 29 | 20 | 8.46 |  |
| N#Cc1cccc(-n2nnc(-c3ccccn3)n2)c1 | 3.8 | 90 | 73 | 6.99 |  |
| Cc1c[nH]c(-c2nnn(-c3cc(F)cc(C#N)c3)n2)n1 | > 14 | 97 | 77 | 7.72 | Vd [8]: 0.6 L/kg; clearance [9]: 40 mL/min/kg; Activity (Cytochrome P450 2C19): > 14 µM; Activity (Cytochrome P450 3A4): > 14 µM; Activity (Cytochrome P450 2C9): > 14 µM; bioavailability [10]: 22%; AUC [11]: 3.4 µM·h; half-life [12]: 18 min; Activity (Cytochrome P450 2D6): > 14 µM; Concentration (Rattus norvegicus): 8.1 µM |
| N#Cc1cccc(-n2nnc(-c3c[nH]cn3)n2)c1 |  |  | > 2000 | < 5.70 |  |
| N#Cc1cccc(-n2nnc(-c3nccs3)n2)c1 | 1 |  | 142 | 6.74 |  |

Further lines, with some results ahead:

| Activity (Cytochrome P450 1A2) [µM] | Occupancy [1] [%] | Activity [2] [nM] | pKi [3] | Compound | further results |
| --- | --- | --- | --- | --- | --- |
| 5.1 | 69 | 9.7 | 8.49 | Fc1cc(Oc2cccnc2)cc(-n2nnc(-c3ncc[nH]3)n2)c1 |  |
|  |  | > 2000 | < 5.70 | N#Cc1cccc(-n2nnc(-c3cc[nH]n3)n2)c1 |  |
| 0.5 | 95 | 5.2 | 8.74 | Cc1ccncc1-c1cc(F)cc(-n2nnc(-c3ccccn3)n2)c1 |  |
| 0.7 | 90 | 6.7 |  | Fc1cc(Oc2cccnc2)cc(-n2nnc(-c3ccccn3)n2)c1 |  |
| 1.7 |  | 148 | 6.80 | N#Cc1cccc(-n2nnc(-c3cscn3)n2)c1 |  |
| > 14 | 95 | 47 | 8.03 | N#Cc1cc(F)cc(-n2nnc(-c3ncc[nH]3)n2)c1 |  |
